Assay results from patent publication US20220370451A1, “INHIBITORS OF HUMAN IMMUNODEFICIENCY VIRUS REPLICATION” (VIIV HEALTHCARE UK ( No. 5) LIMITED, priority 2019, published 2022).
pEC50: −log10 of the molar value.

Tests used:
recombinant NL4-3 virus = test: HIV cell culture assay (luciferase reporter antiviral activity); format: cell-based; details: Human immunodeficiency virus 1, NL43, MT2
Method: HIV cell culture assay—MT=2 cells, 293T cells and the proviral DNA clone of NL4-3 virus were obtained from the NIH AIDS Research and Reference Reagent Program. MT=2 cells were propagated in RPMI 1640 media supplemented with 10% heat inactivated fetal bovine serum (FBS), […] penicillin G and up to 100 units/mL streptomycin. The 293T cells were propagated in DMEM media supplemented with 10% heat inactivated FBS, […] penicillin G and […] streptomycin. A recombinant NL4-3 proviral clone, in which a section of the nef gene was replaced with the Renilla luciferase gene, was used to make the reference virus used in these studies. The recombinant virus was prepared through transfection of the recombinant NL4-3 proviral clone into 293T cells using Transit-293 Transfection Reagent from Mirus Bio LLC (Madison, Wis.). Supernatent was harvested after 2-3 days and the amount of virus present was titered in MT=2 cells using luciferase enzyme activity as a marker by measuring luciferase enzyme activity. Luciferase was quantitated using the EnduRen Live Cell Substrate from Promega (Madison, Wis.). Antiviral activities of compounds toward the recombinant virus were quantified by measuring luciferase activity in MT=2 cells infected for 4-5 days with the recombinant virus in the presence of serial dilutions of the compound.
The 50% effective concentration (EC50) was calculated by using the exponential form of the median effect equation where (Fa)=1/[1+(ED50/drug conc.)m] (Johnson V A, Byington RT. Infectivity Assay. In Techniques in HIV Research. ed. Aldovini A, Walker B D. 71-76. New York: Stockton Press.1990). The 50% inhibitory concentration (EC50) was calculated by using the exponential form of the median effect equation where percent inhibition=1/[1+(EC50/drug concentration)m], where m is a parameter that reflects the slope of the concentration-response curve.

[1] = Compound cytotoxicity, XTT-based colorimetric assay; format: cell-based; details: human; uninfected MT2 cells, day 4, XTT
Method: Compound cytotoxicity and the corresponding CC50 values were determined using the same protocol as described in the antiviral assay except that uninfected cells were used. Cytotoxicity was assessed on day 4 in uninfected MT2 cells by using a XTT (2,3-bis[2-Methoxy-4-nitro-5-sulfophenyl]-2H-tetrazolium-5-carboxyanilide inner salt)-based colorimetric assay (Sigma-Aldrich, St Louis, Mo.).

Compound | pEC50 (recombinant NL4-3 virus) | CC50 at 4 days [1] [nM]
CS(=O)(=O)Nc1nn(CC(F)F)c2c(-n3c([C@H](Cc4cc(F)cc(F)c4)NC(=O)Cn4nc(C5CC5)c5ccccc54)nc4nc(-c5ccccc5F)ccc4c3=O)ccc(Cl)c12 (atropisomer, axis not shown; (P)) [Example 18, (S)-N-(1-((3P)-3-(4-chloro-1-(2,2-difluoroethyl)-3-(methylsulfonamido)-1H-indazol-7-yl)-7-(2-fluorophenyl)-4-oxo-3,4-dihydropyrido[2,3-d]pyrimidin-2-yl)-2-(3,5-difluorophenyl)ethyl)-2-(3-cyclopropyl-1H-indazol-1-yl)acetamide] | 9.77 | > 500
Cn1nc(NS(C)(=O)=O)c2c(Cl)ccc(-n3c([C@H](Cc4cc(F)cc(F)c4)NC(=O)C(C)(C)n4ccc(C5CC5)n4)nc4nc(-c5ccccc5F)ccc4c3=O)c21 (atropisomer, axis not shown; (P)) [Example 19, (S)-N-(1-((3P)-3-(4-chloro-1-methyl-3-(methylsulfonamido)-1H-indazol-7-yl)-7-(2-fluorophenyl)-4-oxo-3,4-dihydropyrido[2,3-d]pyrimidin-2-yl)-2-(3,5-difluorophenyl)ethyl)-2-(3-cyclopropyl-1H-pyrazol-1-yl)-2-methylpropanamide] | 9.66 | > 500
CC(C)(C(=O)N[C@@H](Cc1cc(F)cc(F)c1)c1nc2nc(-c3ccccc3F)ccc2c(=O)n1-c1ccc(Cl)c2c(NS(C)(=O)=O)nn(CC(F)F)c12)n1ccc(C2CC2)n1 (atropisomer, axis not shown; (P)) [Example 20] | 9.02 | > 500
CC(C)(C(=O)N[C@@H](Cc1cc(F)cc(F)c1)c1nc2nc(-c3ccccc3F)ccc2c(=O)n1-c1ccc(Cl)c2c(NS(=O)(=O)C3CC3)nn(CC(F)F)c12)n1ccc(C2CC2)n1 (atropisomer, axis not shown; (P)) [Example 21, (S)-N-(1-((3P)-3-(4-chloro-3-(cyclopropanesulfonamido)-1-(2,2-difluoroethyl)-1H-indazol-7-yl)-7-(2-fluorophenyl)-4-oxo-3,4-dihydropyrido[2,3-d]pyrimidin-2-yl)-2-(3,5-difluorophenyl)ethyl)-2-(3-cyclopropyl-1H-pyrazol-1-yl)-2-methylpropanamide] | 8.64 | > 500
CC(C)(C(=O)N[C@@H](Cc1cc(F)cc(F)c1)c1nc2nc(-c3ccccc3F)ccc2c(=O)n1-c1ccc(Cl)c2c(NS(C)(=O)=O)nn(CC(F)(F)F)c12)n1ccc(C2CC2)n1 (atropisomer, axis not shown; (P)) [Example 22, (S)-N-(1-((3P)-3-(4-chloro-3-(methylsulfonamido)-1-(2,2,2-trifluoroethyl)-1H-indazol-7-yl)-7-(2-fluorophenyl)-4-oxo-3,4-dihydropyrido[2,3-d]pyrimidin-2-yl)-2-(3,5-difluorophenyl)ethyl)-2-(3-cyclopropyl-1H-pyrazol-1-yl)-2-methylpropanamide] | 9.10 | > 500
CC(C)[C@@H](C(=O)N[C@@H](Cc1cc(F)cc(F)c1)c1nc2nc(-c3ccccc3F)ccc2c(=O)n1-c1ccc(Cl)c2c(NS(C)(=O)=O)nn(CC(F)(F)F)c12)n1ccc(C2CC2)n1 (atropisomer, axis not shown; (P)) [Example 23, N-((S)-1-((3P)-3-(4-chloro-3-(methylsulfonamido)-1-(2,2,2-trifluoroethyl)-1H-indazol-7-yl)-7-(2-fluorophenyl)-4-oxo-3,4-dihydropyrido[2,3-d]pyrimidin-2-yl)-2-(3,5-difluorophenyl)ethyl)-2-(3-cyclopropyl-1H-pyrazol-1-yl)-3-methylbutanamide] | 9.68 | > 500
CC(C)[C@H](C(=O)N[C@@H](Cc1cc(F)cc(F)c1)c1nc2nc(-c3ccccc3F)ccc2c(=O)n1-c1ccc(Cl)c2c(NS(=O)(=O)C3CC3)nn(CC(F)F)c12)n1ccc(C2CC2)n1 (atropisomer, axis not shown; (P)) [Example 24, N-((S)-1-((3P)-3-(4-chloro-3-(cyclopropanesulfonamido)-1-(2,2-difluoroethyl)-1H-indazol-7-yl)-7-(2-fluorophenyl)-4-oxo-3,4-dihydropyrido[2,3-d]pyrimidin-2-yl)-2-(3,5-difluorophenyl)ethyl)-2-(3-cyclopropyl-1H-pyrazol-1-yl)-3-methylbutanamide] | 8.41 | > 500
CC(C)[C@H](C(=O)N[C@@H](Cc1cc(F)cc(F)c1)c1nc2nc(-c3ccccc3F)ccc2c(=O)n1-c1ccc(Cl)c2c(NS(C)(=O)=O)nn(CC(F)(F)F)c12)n1ccc(C2CC2)n1 (atropisomer, axis not shown; (P)) [Example 26, N-((S)-1-((3P)-3-(4-chloro-3-(methylsulfonamido)-1-(2,2,2-trifluoroethyl)-1H-indazol-7-yl)-7-(2-fluorophenyl)-4-oxo-3,4-dihydropyrido[2,3-d]pyrimidin-2-yl)-2-(3,5-difluorophenyl)ethyl)-2-(3-cyclopropyl-1H-pyrazol-1-yl)-3-methylbutanamide] | 8.72 | > 500
Cn1nc(NS(C)(=O)=O)c2c(Cl)ccc(-n3c([C@H](Cc4cc(F)cc(F)c4)NC(=O)Cn4nc(C5CC5)cc4C(F)F)nc4cc(-c5ccccc5F)ccc4c3=O)c21 (atropisomer, axis not shown; (P)) [Example 29, (S)-N-(1-((3P)-3-(4-chloro-1-methyl-3-(methylsulfonamido)-1H-indazol-7-yl)-7-(2-fluorophenyl)-4-oxo-3,4-dihydroquinazolin-2-yl)-2-(3,5-difluorophenyl)ethyl)-2-(3-cyclopropyl-5-(difluoromethyl)-1H-pyrazol-1-yl)acetamide] | 8.51 | > 500
Cc1nccnc1-c1ccc2c(=O)n(-c3ccc(C)c4c(NS(C)(=O)=O)nn(CC(F)F)c34)c([C@H](Cc3cc(F)cc(F)c3)NC(=O)Cn3nc(C(F)F)c4c3C(F)(F)[C@@H]3C[C@H]43)nc2c1 (atropisomer, axis not shown; (P)) [Example 32, N-((S)-1-(3-(1-(2,2-difluoroethyl)-4-methyl-3-(methylsulfonamido)-1H-indazol-7-yl)-(3P)-7-(3-methylpyrazin-2-yl)-4-oxo-3,4-dihydroquinazolin-2-yl)-2-(3,5-difluorophenyl)ethyl)-2-((3bS,4aR)-3-(difluoromethyl)-5,5-difluoro-3b,4,4a,5-tetrahydro-1H-cyclopropa[3,4]cyclopenta[1,2-c]pyrazol-1-yl)acetamide] | 10.20 | > 500
O=C(Cn1nc(C(F)F)cc1C1CC1)N[C@@H](Cc1cc(F)cc(F)c1)c1nc2cc(-c3ccccn3)ccc2c(=O)n1-c1ccc(Cl)c2c(NS(=O)(=O)C3CC3)nn(CC(F)F)c12 (atropisomer, axis not shown; (P)) [Example 33, (S)-N-(1-((3P)-3-(4-chloro-3-(cyclopropanesulfonamido)-1-(2,2-difluoroethyl)-1H-indazol-7-yl)-4-oxo-7-(pyridin-2-yl)-3,4-dihydroquinazolin-2-yl)-2-(3,5-difluorophenyl)ethyl)-2-(5-cyclopropyl-3-(difluoromethyl)-1H-pyrazol-1-yl)acetamide] | 9.10 | > 500
O=C(Cn1nc(C(F)F)cc1C1CC1)N[C@@H](Cc1cc(F)cc(F)c1)c1nc2cc(-c3ncccn3)ccc2c(=O)n1-c1ccc(Cl)c2c(NS(=O)(=O)C3CC3)nn(CC(F)F)c12 (atropisomer, axis not shown; (P)) [Example 34, (S)-N-(1-((3P)-3-(4-chloro-3-(cyclopropanesulfonamido)-1-(2,2-difluoroethyl)-1H-indazol-7-yl)-4-oxo-7-(pyrimidin-2-yl)-3,4-dihydroquinazolin-2-yl)-2-(3,5-difluorophenyl)ethyl)-2-(5-cyclopropyl-3-(difluoromethyl)-1H-pyrazol-1-yl)acetamide] | 9.40 | > 500
Cc1nccnc1-c1ccc2c(=O)n(-c3ccc(Cl)c4c(NS(=O)(=O)C5CC5)nn(CC(F)F)c34)c([C@H](Cc3cc(F)cc(F)c3)NC(=O)Cn3nc(C(F)F)cc3C3CC3)nc2c1 (atropisomer, axis not shown; (P)) [Example 35, (S)-N-(1-((3P)-3-(4-chloro-3-(cyclopropanesulfonamido)-1-(2,2-difluoroethyl)-1H-indazol-7-yl)-7-(3-methylpyrazin-2-yl)-4-oxo-3,4-dihydroquinazolin-2-yl)-2-(3,5-difluorophenyl)ethyl)-2-(5-cyclopropyl-3-(difluoromethyl)-1H-pyrazol-1-yl)acetamide] | 9.44 | > 500
